# Test results reported in patent US8193377B2, “(−)-epigallocatechin gallate derivatives for inhibiting proteasome” (The Hong Kong Polytechnic University, priority 2004, dated 2012).
# pIC50: −log10 of the molar value.
# Tests used:
# [1] = tested on: ubiquitinated proteins, Bax, p27, IκBα in Jurkat T cells; experiment: Western blot for ubiquitinated proteins and proteasome targets (Bax, p27, IκBα) in Jurkat T cells; type: cell-based, human; conditions: 25 μM
# Description: (§1) Whole cells extracts were prepared as described previously (An B, Goldfarb R H, Siman R, Dou Q P. Novel dipeptidyl proteasome inhibitors overcome Bc1-2 protective function and selectively accumulate the cyclin-dependent kinase inhibitor p27 and induce apoptosis in transformed, but not normal, human fibroblasts. Cell Death Differ 1998; 5: 1062-75.). Analysis of Bax, IKBa, p27, PAW, and ubiquitinated protein expression were performed using monoclonal or polyclonal antibodies according to previously reported protocols (An B et. al.).
# To determine what effects the synthetic tea analogs had on the proteasome in vivo, Jurkat cells were treated with 25 μM of each synthetic compound for either 4 or 24 h, with (−)-EGCG as a control (FIGS. 9A and 9B). […] This is consistent with the idea that protected analogs are potent inhibitors of the proteasome at an earlier time point and that after 24 h of treatment the ubiquitinated proteins are being depleted by deubiquitinating enzymes. […] The putative ubiquitinated IκBα band is still found in cells treated with 2a, 3a, and 4a (FIG. 9B, Lanes 9, 5, 7). The presumed ubiquinated IκBα band is now absent in the 24 h treatment, possibly due to deubiquitination (FIG. 9B). Actin was used as a loading control in this experiment.
# The pro-apoptotic protein Bax and the cyclin-dependent kinase inhibitor p27 are natural proteasome targets. If the peracetate-protected polyphenols inhibit the intact proteasome activity, we would expect accumulation of Bax and p27 in these cells. To test this idea, Jurkat T cells were treated with both protected and unprotected compounds and lysates were analyzed by Western blot using specific antibodies to Bax and p27 (FIG. 15). After 4 h of treatment, the peracetate-protected analogs 24* and 19*, but not their unprotected analogs, were able to increase accumulation of both Bax (by 3- and 2.5-fold, respectively) and p27 (6- and 11-fold, respectively) (FIG. 15A). After 24 h treatment, Bax levels were increased in cells treated with all of the peracetate-protected compounds (13-, 12-, 40- and 36-fold, respectively, by 24*, 19*, 21* and 23*).
# [2] = tested on: Jurkat T cells; experiment: Trypan blue cell death assay in Jurkat T cells; type: cell-based, human; conditions: 24 h
# [3] = tested on: Jurkat T cells; experiment: Western blot for PARP cleavage in Jurkat T cells; type: cell-based, human; conditions: 25 μM, 24 h
# Description: as §1
# (§2) It has been shown that proteasome inhibition can induce apoptosis in a wide variety of cancer cells, but not in normal, non-transformed cells (An B et al). Jurkat T cells are treated with 25 μM of each of the selected polyphenols and their protected analogs for 24 h to investigate their abilities to induce apoptotic cell death. […] The unprotected 2 induced much less apoptosis (21%), while 25 μM VP-16, used as a positive control, induced 92% apoptosis (FIGS. 10C and 10D). Counterstain with DAPI, which binds to the minor groove in A-T rich regions of DNA, was decreased drastically in apoptotic cells (FIG. 10C), consistent with DNA fragmentation in late stage apoptosis.
# To determine if the cell death observed (FIG. 16) was due to the induction of apoptosis, a similar experiment was performed in Jurkat T cells, followed by measurement of caspase-3 activation and PARP cleavage.
# [4] = tested on: MCF-7 cells; experiment: MTT assay; type: cell-based, human; conditions: 24 h
# Description: MTT was used to determine effects of polyphenols on overall proliferation of tumor cells. Human breast MCF-7 cells were plated in a 96 well plate and grown to 70-80% confluency, followed by addition of analogs for 24 h. MTT (1 mg/ml) in PBS was then added to wells and incubated at 37° C. for 4 hours to allow for complete cleavage of the tetrazolium salt by metabolically active cells. Next, the MTT was removed and 100 μl of DMSO was added and colorimetric analysis performed using a multilabel plate reader at 560 nm (Victor^3; Perkin Elmer). Absorbance values plotted are the mean from triplicate experiments.
# Treated breast cancer (MCF-7) cells were then treated with 5 or 25 μM of peracetate-protected analogs for 24 h, followed by MTT analysis to determine their effects on cell proliferation. Compound 1 at 25 μM inhibited cellular proliferation by 40% (FIG. 11A).
# [5] = tested on: LNCaP cells; experiment: Apoptotic morphological changes, phase contrast; type: cell-based, human; conditions: 25 μM, 24 h
# [6] = tested on: LNCaP cells; experiment: Soft agar colony formation assay; type: cell-based, human; conditions: 25 μM once at plating, 21 days
# [7] = biological target: T1, purified rabbit 20s proteasome (Oryctolagus cuniculus, UniProt G1T4Q9); experiment: Inhibition of chymotrypsin-like activity of purified 20S proteasome; type: biochemical
# T1 construct: purchased Boston Biochem (Cambridge, Mass.)
# T1 sequence (G1T4Q9 1-263): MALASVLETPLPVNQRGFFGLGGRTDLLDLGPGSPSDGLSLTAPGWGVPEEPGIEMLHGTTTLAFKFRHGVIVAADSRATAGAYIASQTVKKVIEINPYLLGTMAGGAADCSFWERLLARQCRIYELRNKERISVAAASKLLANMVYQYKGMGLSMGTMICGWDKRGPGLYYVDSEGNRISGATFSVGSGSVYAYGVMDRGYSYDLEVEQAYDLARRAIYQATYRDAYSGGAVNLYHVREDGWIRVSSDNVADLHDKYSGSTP
# Description: Measurement of the chyrnotrypsin-like activity of the 20s proteasome was performed by incubating 0.5 μg of purified rabbit 20s proteasome with 40 μM fluorogenic peptide substrate, Suc-Leu-Leu-Val-Tyr-AMC, with or without various concentrations of natural and synthetic tea polyphenols as described previously (Nam S et. al.).
# In order to test this hypothesis, proteasome activity was tested both in vitro and in intact Jurkat T cells with either 1 or (−)-EGCG (as a positive control). First, 1 and commercial (−)-EGCG were dissolved in DMSO and their effects on the chymotrypsin-like activity of purified 20S proteasomes were measured. […] In contrast, (−)-EGCG at 10 μM inhibited 80-90% of the proteasomal chymotrypsin-like activity. Therefore, as predicted, 1 outside of a cellular system is not a proteasome inhibitor.
# Up to 25 μM of all protected and unprotected compounds were incubated with a purified 20s proteasome and a fluorogenic substrate for chyrnotrypsin activity for 30 min. The half-maximal inhibitory concentration or IC50 was then determined. […] This is consistent with the results above.
# [8] = biological target: T2, proteasomal chymotrypsin-like activity in Jurkat T cells (Homo sapiens, UniProt P28074); experiment: Proteasomal chymotrypsin-like activity in intact Jurkat T cells / their lysates; type: cell-based; conditions: 25 μM, 24 h, Jurkat T
# T2 construct: measurement of the proteasomal chymotrypsin-like activity in the prepared lysates; endogenous in cells; host or cells: Jurkat T cells (human leukemia)
# T2 sequence (P28074 60-263): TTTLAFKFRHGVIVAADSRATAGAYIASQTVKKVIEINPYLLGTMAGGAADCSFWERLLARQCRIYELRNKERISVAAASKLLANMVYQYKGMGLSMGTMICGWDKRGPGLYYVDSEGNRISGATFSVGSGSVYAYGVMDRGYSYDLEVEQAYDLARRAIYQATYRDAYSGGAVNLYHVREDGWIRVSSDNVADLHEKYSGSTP
# Description: VA-13 or WI-38 cells were grown in 24 well plates (2 ml/well) to 70-80% confluency, followed by 24 h treatment with […] (−)-EGCG, 2, or 2a. […] Suc-Leu-Leu-Val-Tyr-AMC substrate was then added for 2.5 h at 37° C. and the chyrnotrypsin-like activity was measured as described above. Alternatively, cells were treated with each compound at 25 μM for 4 or 24 h, and harvested and lysed. Suc-Leu-Leu-Val-Tyr-AMC (40 μM) was then incubated with the prepared cell lysates for 2.5 h and the chymotrypsin-like activity was measured as described above.
# If 1 converts to (−)-EGCG inside the cells, proteasome inhibition in vivo should be detected. To examine this possibility, human Jurkat cells was treated with 25 μM of 1 or (−)-EGCG for 12 or 24 h, followed by measurement of proteasome activity by using a chymotrypsin-like specific fluorogenic substrate in intact cells (FIG. 6a) or Western blot for ubiquinated proteins (FIG. 6b). […] To analyze the intracellular level of polyubiquitinated proteins, cells were lysed after 12 hours incubation and subjected to Western blotting. […] It is possible that the amount of EGCG generated from 1, and thus its biological activity inside the cells depends on a combination of factors: the relative permeability of 1 into the cells, the amount of esterase enzymes and the amount of anti-oxidants that may be present in the cells at any time.
# To determine whether the unprotected and protected polyphenol analogs could inhibit the proteasomal activity in intact cells, leukemia Jurkat T cells were treated with each compound at 25 μM for 4 and 24 h, followed by collection of cell pellets and measurement of the proteasomal chymotrypsin-like activity in the prepared lysates.
# [9] = tested on: phosphorylated Akt (p-Akt); experiment: Western blot for phosphorylated Akt in Jurkat T cells; type: cell-based, human; conditions: 25 μM, 24 h
# Description: (−)-EGCG and 1 were incubated with Jurkat T cells for 24 h at 5, 10 and 25 μM, followed by Western blot analysis using a specific antibody to phosphorylated Akt (FIG. 7). […] Actin was used as a loading control.
# [10] = Stability test in RPMI 1640 culture medium, HPLC; conditions: 37° C.
# Description: The stability of 1 with (−)-EGCG in a culture medium (RMPI) is compared, which mimics the body fluid with a pH value around 8. (−)-EGCG or 1 at 0.1 mM was incubated in 1 mL RMPI at 37° C. at indicated times. At different time points, the medium was analyzed by HPLC for the amount of tested compound remaining.
# [11] = tested on: VA-13 cells; experiment: Immunostaining of apoptotic cells with anti-cleaved PARP-FITC; type: cell-based, human; conditions: 25 μM, 24 h
# Description: Immunostaining of apoptotic cells was performed by addition of a FITC-conjugated polyclonal antibody that recognizes cleaved poly(ADP-ribose) polymerase (PARP) and visualized on an Axiovert 2 5 (Zeiss; Thornwood, N.Y.) microscope. Cells were grown to about 80% confluency in 60 mm dishes. VA-13 cells were then treated with VP-16, 2, or 2a (25 μM) for 24 h. Following treatment, both suspension and adhering cells were collected and washed twice in PBS pH 7.4. The cells were washed between all steps listed below and all washes are 1 min duration with PBS. Cells were then fixed in ice-cold 70% ethanol, permeabilized in 0.1% Triton-X-100 and blocked for 30 min in 1% bovine serum albumin (BSA) at room temperature. Incubation with the primary FITC-conjugated-p85/PARP antibody was for 30 min at 4° C. in the dark with mild shaking. Cell suspension was then transferred to glass slides in the presence of Vector Shield mounting medium with DAPI. Images were captured using AxioVision 4.1 and adjusted using Adobe Photoshop 6.0 software. Cell death was quantified by counting the number of apoptotic cells over the total number of cells in the same field. Data are mean of duplicate experiments ±SD.
# as §2
# [12] = tested on: VA-13 cells; experiment: Nuclear staining (Hoechst) for apoptotic morphology, VA-13; type: cell-based, human; conditions: 25 μM, 24 h
# Description: After each drug treatment, both detached and attached VA-13 and WI-38 cells were stained Hoechst 33342 to assess for apoptosis. Briefly, cells were washed 2× in PBS, fixed for 1 h with 70% ethanol at 4° C., washed 3× in PBS, and stained with […] Hoechst for 30 min in the dark at room temperature. Detached cells were plated on a slide and attached cells were visualized on the plate with a fluorescent microscope at 10× or 40× resolution (Zeiss, Germany). Digital Scientific obtained images with AxioVision 4.1 and adjusted using Adobe Photoshop 6.0.
# Next, apoptotic nuclear morphology is examined after treatment with natural (−)-EGCG, 2, and 2a (FIG. 12B). […] A comparison among all the protected analogs was then performed using 25 μM for 24 h. […] All of the protected analogs induced apoptosis in transformed (VA-13), but not normal (WI-38) cells (FIGS. 12B and 12C).
Compound,accumulation of p27 ([1]; 24 h),time course of ubiquitinated protein accumulation ([1]; up to 8 h),cell death (trypan blue) ([2]; 25 μM),apoptosis-specific PARP cleavage [3],inhibition of cellular proliferation ([4]; 5 μM),inhibition of cellular proliferation ([4]; 25 μM),apoptotic morphological changes [5],colony formation in soft agar [6],"inhibition of proteasomal chymotrypsin-like activity ([7]; 10 μM, purified 20S proteasome)",inhibition of proteasome activity in intact cells [8],level of ubiquitinated proteins ([1]; 12 h),reduction of p-Akt level (densitometry) [9],cell death ([2]; 10 μM),"time after which compound disappeared completely ([10]; 0.1 mM in RPMI, pH around 8)",stability relative to (−)-EGCG ([10]; RPMI culture medium),"pIC50 ([7]; up to 25 μM, 30 min incubation, read-out: IC50)",apoptotic cells (p85 cleaved PARP) [11],apoptotic nuclear morphology [12]
"CC(=O)Oc1cc(OC(C)=O)cc(C(=O)O[C@@H]2Cc3c(OC(C)=O)cc(OC(C)=O)cc3O[C@H]2c2cc(OC(C)=O)c(OC(C)=O)c(OC(C)=O)c2)c1 (relative stereo) [Compound 4a, (2S*,3R*)-trans-5,7-Bis(acetyloxy)-2-[3,4,5-tris(acetyloxy)phenyl]chroman-3-yl 3,5-bis(acetyloxy)benzoate]",Accumulation of p27,as early as 2 h and lasting up to 8 h,83%,induced apoptosis-specific PARP cleavage,50%,70%,"dramatic round-up, detachment, and cellular fragmentation",most potent inhibitors of colony formation,,,,,,,,,,
"CC(=O)Oc1cc(OC(C)=O)c2c(c1)O[C@H](c1cc(OC(C)=O)c(OC(C)=O)c(OC(C)=O)c1)[C@H](OC(=O)c1cc(OC(C)=O)c(OC(C)=O)c(OC(C)=O)c1)C2 [Compound 1, peracetate (−)-EGCG]",,,,,,40%,mild morphological changes,,completely inactive,42%,comparable levels of ubiquitinated proteins to that of natural (−)-EGCG,73%,up to 15%,2 h,6 times,,,
"O=C(O[C@@H]1Cc2c(O)cc(O)cc2O[C@H]1c1cc(O)c(O)c(O)c1)c1cccc(O)c1 (relative stereo) [Compound 2, (2S*,3R*)-trans-5,7-Bis(hydroxy)-2-[3,4,5-tris(hydroxy)phenyl]chroman-3-yl 3-(hydroxy)benzoate]",,,,,,,,,,,,,,,,~5.00,21%,little or no apoptosis
